Data on 26 compounds can be found in patent US11008323B2, “Substituted tricyclic 1,4-benzodiazepinone derivatives as allosteric modulators of group II metabotropic glutamate receptors” (Domain Therapeutics, priority 2015, dated 2021).

A word on the EC50: it is the concentration that produces a half-maximal response. A low value points to higher potency in that assay.

For this experiment, the target named is T1, human mGluR3 (hmGluR3) (Homo sapiens, UniProt Q14832).
T1 construct: expressed in transfected cells; host or cells: HEK-293 cells, transient co-transfection by electroporation
T1 sequence (Q14832 23-879): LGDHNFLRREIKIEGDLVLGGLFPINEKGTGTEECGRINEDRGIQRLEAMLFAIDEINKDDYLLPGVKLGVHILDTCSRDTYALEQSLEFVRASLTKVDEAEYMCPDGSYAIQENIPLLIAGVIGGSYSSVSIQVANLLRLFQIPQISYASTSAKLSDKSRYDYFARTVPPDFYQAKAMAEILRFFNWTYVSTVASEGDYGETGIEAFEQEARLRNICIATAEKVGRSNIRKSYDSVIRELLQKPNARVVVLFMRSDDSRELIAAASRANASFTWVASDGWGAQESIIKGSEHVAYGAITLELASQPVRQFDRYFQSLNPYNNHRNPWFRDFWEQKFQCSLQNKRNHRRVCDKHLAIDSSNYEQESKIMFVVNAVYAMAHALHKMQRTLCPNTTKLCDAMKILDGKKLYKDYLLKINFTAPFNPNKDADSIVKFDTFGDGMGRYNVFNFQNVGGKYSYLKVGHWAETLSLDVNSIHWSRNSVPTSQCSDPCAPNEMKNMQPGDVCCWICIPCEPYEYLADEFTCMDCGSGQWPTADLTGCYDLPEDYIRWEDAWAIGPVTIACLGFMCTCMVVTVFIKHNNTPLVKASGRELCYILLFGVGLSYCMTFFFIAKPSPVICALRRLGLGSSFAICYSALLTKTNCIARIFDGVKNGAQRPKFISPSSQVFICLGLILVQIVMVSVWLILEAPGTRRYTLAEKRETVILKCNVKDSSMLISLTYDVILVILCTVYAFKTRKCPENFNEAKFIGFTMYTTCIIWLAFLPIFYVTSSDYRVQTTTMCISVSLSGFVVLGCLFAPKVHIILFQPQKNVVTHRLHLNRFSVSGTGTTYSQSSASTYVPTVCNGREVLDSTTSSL
Kind of experiment: Human mGluR3 positive allosteric modulator evaluation using Ca++ functional assay. Type of experiment: cell-based. Particulars: hmGluR3 transiently over-expressed in HEK-293 cells; stimulated by EC50 glutamate concentration; intracellular Ca2+ (Fluo4AM, FLIPR Tetra). As to the method: Compounds of the present invention were tested successively for their agonist and positive allosteric modulator activities on human mGluR3 (hmGluR3) transiently over-expressed in HEK-293 cells. Compounds exert agonist activity if they are able to activate hmGluR3 by themselves, i.e., in absence of the endogenous agonist glutamate; and they exert positive allosteric modulator activity if they increase the action of the endogenous agonist glutamate.
HEK-293 cells were maintained in Modified Eagle's Medium supplemented with 10% Foetal Calf Serum, 1% Penicillin/Streptomycin and 1% non-essential amino acids at 37° C./5% CO2.
Cells were co-transfected by electroporation with four DNA plasmids encoding hmGluR3, a chimeric G protein allowing redirection of the activation signal toward intracellular calcium pathway, and two glutamate transporters so as to decrease extracellular glutamate levels and avoid receptor desensitization (Brabet I et al., Neuropharmacology 37(8), 1043-51, 1998). After transfection, cells were seeded in 75 cm^2 culture flasks, and cultured for 24 h.
Receptor activity was detected by changes in intracellular calcium measured using the fluorescent Ca^2+ sensitive dye, Fluo4AM (Molecular Probes).
The day of the assay, medium was aspirated and replaced during 3 hrs by freshly prepared buffer B (HBSS 1×, Hepes 20 mM, MgSO4-7H2O 1 mM, Na2CO3 3.3 mM, CaCl2-2H2O 1.3 mM, 0.5% BSA, Probenecid 2.5 mM). Then, cells were loaded at 37° C./5% CO2 for 1.5 hrs with buffer B containing 1 μM Fluo4AM, 0.1 mg/mL Pluronic Acid, 7 μg/mL Glutamate Pyruvate Transaminase and 2 mM sodium pyruvate. Afterwards cells were washed with buffer B. Cells were then detached from the 75 cm^2 culture flasks with Accutase® (5 min incubation at 37° C.), centrifuged (5 min at 840 rpm), resuspended in buffer B and finally seeded at a density of 30,000 cells/well in black-walled clear-bottom 384-well plates. Addition of compounds on cells and intracellular Ca^2+ measurements (excitation 485 nm, emission 525 nm) were performed by the fluorescence microplate reader FLIPR Tetra (Molecular Devices).
Agonist and positive allosteric modulator activities of compounds were consecutively evaluated on the same cells plate. Agonist activity was first tested during 10 min with the addition of compound alone on the cells. Then, the cells were stimulated by an EC50 glutamate concentration and fluorescence was recorded for additional 3 min. EC50 glutamate concentration is the concentration giving 50% of the maximal glutamate response. Agonist and/or positive allosteric modulator activity(ies) were evaluated in comparison to basal signal or signal evoked by EC50 glutamate concentration alone, respectively.
For potency determination, a dose-response test was performed using 20 concentrations of each compound of the invention. Dose-response curves were fitted using the sigmoïdal dose-response (variable slope) analysis in XLfit Scientific Curve Fitting for Excel (IDBS). EC50 of agonist/EC50 of positive allosteric modulator activity(ies) were calculated. Dose-response experiments were all performed in duplicate, two times independently.
Consider `CCCc1ncccc1-c1ccc2c(c1)-n1cccc1C(=O)N(C)C21CC1` [Example 61, 5-Methyl-9-(2-propylpyridin-3-yl)-spiro[benzo[f]pyrrolo[1,2-a][1,4]diazepine-6,1′-cyclopropan]-4(5H)-one], for which the EC50 is less than 100 nM.

In turn, `CN1C(=O)c2cccn2-c2cc(-c3cccnc3C3CC3)ccc2C12CC2` [Example 62, 5-Methyl-9-(2-cyclopropylpyridin-3-yl)-spiro[benzo[f]pyrrolo[1,2-a][1,4]diazepine-6,1′-cyclopropan]-4(5H)-one] displayed a concentration for a half-maximal effect (EC50) of 100 to 1000 nM.

`Cc1ccnc(C)c1-c1ccc2c(c1)-n1cccc1C(=O)N(C)C21CC1` [Example 65, 5-Methyl-9-(2,4-dimethylpyridin-3-yl)-spiro[benzo[f]pyrrolo[1,2-a][1,4]diazepine-6,1′-cyclopropan]-4(5H)-one] showed a 50% effective concentration (EC50) of more than 1000 nM.

`Cc1ncccc1-c1cc(F)c2c(c1)-n1cccc1C(=O)N(C)C21CC1` [Example 73, 7-Fluoro-5-methyl-9-(2-methyl-pyridin-3-yl)-spiro[benzo[f]pyrrolo[1,2-a][1,4]diazepine-6,1′-cyclopropan]-4(5H)-one] yielded an EC50 of less than 100 nM.

Turning to `Cc1ncccc1-c1ccc2c(c1F)-n1cccc1C(=O)N(C)C21CC1` [Example 75, 10-Fluoro-5-methyl-9-(2-methyl-pyridin-3-yl)-spiro[benzo[f]pyrrolo[1,2-a][1,4]diazepine-6,1′-cyclopropan]-4(5H)-one], the EC50 fell in the range of 100 to 1000 nM.

`Cc1ncccc1-c1cc2c(cc1F)C1(CC1)N(C)C(=O)c1cccn1-2` [Example 77, 8-Fluoro-5-methyl-9-(2-methyl-pyridin-3-yl)-spiro[benzo[f]pyrrolo[1,2-a][1,4]diazepine-6,1′-cyclopropan]-4(5H)-one] returned an EC50 of 100 to 1000 nM.

Consider `Cc1ncccc1-c1ccc2c(c1)-n1c(F)ccc1C(=O)N(C)C21CC1` [Example 81, 9-(2-Methyl-pyridin-3-yl)-1-fluoro-5-methyl-spiro[benzo[f]pyrrolo[1,2-a][1,4]diazepine-6,1′-cyclopropan]-4(5H)-one], for which the EC50 was less than 100 nM.

`Cc1ncccc1-c1ccc2c(c1)-n1cc(Cl)cc1C(=O)N(C)C21CC1` [Example 82, 9-(2-Methyl-pyridin-3-yl)-2-chloro-5-methyl-spiro[benzo[f]pyrrolo[1,2-a][1,4]diazepine-6,1′-cyclopropan]-4(5H)-one] showed an EC50 of less than 100 nM.

In turn, `Cc1ncccc1-c1ccc2c(c1)-n1c(cc(Cl)c1F)C(=O)N(C)C21CC1` [Example 83, 9-(2-Methyl-pyridin-3-yl)-2-chloro-1-fluoro-5-methyl-spiro[benzo[f]pyrrolo[1,2-a][1,4]diazepine-6,1′-cyclopropan]-4(5H)-one] returned an EC50 of less than 100 nM.

For the compound `Cc1ncccc1-c1ccc2c(c1)-n1ccc(Cl)c1C(=O)N(C)C21CC1` [Example 84, 9-(2-Methyl-pyridin-3-yl)-3-chloro-5-methyl-spiro[benzo[f]pyrrolo[1,2-a][1,4]diazepine-6,1′-cyclopropan]-4(5H)-one], the concentration giving a half-maximal response (EC50) is 100 to 1000 nM.

Turning to `Cc1ncccc1-c1cccc2c1-n1cccc1C(=O)N(C)C21CC1` [Example 92, 10-(2-Methyl-pyridin-3-yl)-5-methyl-spiro[benzo[f]pyrrolo[1,2-a][1,4]diazepine-6,1′-cyclopropan]-4(5H)-one], the EC50 was more than 1000 nM.

In turn, `CN1C(=O)c2cc(-c3ccccc3)cn2-c2cc(-c3cccnc3)ccc2C12CC2` [Example 93, 5-Methyl-2-phenyl-9-pyridin-3-yl-spiro[benzo[f]pyrrolo[1,2-a][1,4]diazepine-6,1′-cyclopropan]-4(5H)-one] displayed an EC50 of less than 100 nM.

As to `Cc1ncccc1-c1ccc2c(c1)-n1cc(-c3ccccc3)cc1C(=O)N(C)C21CC1` [Example 95, 5-Methyl-2-phenyl-9-(2-methyl-pyridin-3-yl)-spiro[benzo[f]pyrrolo[1,2-a][1,4]diazepine-6,1′-cyclopropan]-4(5H)-one], the half-maximal effective concentration (EC50) is less than 100 nM.

`CN1C(=O)c2cc(-c3ccccc3)cn2-c2cc(-c3ccc(N)nc3)ccc2C12CC2` [Example 96, 5-Methyl-2-phenyl-9-(6-amino-pyridin-3-yl)-spiro[benzo[f]pyrrolo[1,2-a][1,4]diazepine-6,1′-cyclopropan]-4(5H)-one]: the EC50 lay in the range of 100 to 1000 nM.

The compound `Cc1cc(-c2ccc3c(c2)-n2cc(-c4ccccc4)cc2C(=O)N(C)C32CC2)cc(C)n1` [Example 97, 5-Methyl-2-phenyl-9-(2,6-dimethyl-pyridin-4-yl)-spiro[benzo[f]pyrrolo[1,2-a][1,4]diazepine-6,1′-cyclopropan]-4(5H)-one] gave a 50% effective concentration (EC50) of 100 to 1000 nM.

In the case of `Cc1cncc(-c2ccc3c(c2)-n2cc(-c4ccccc4)cc2C(=O)N(C)C32CC2)c1` [Example 98, 5-Methyl-2-phenyl-9-(5-methyl-pyridin-3-yl)-spiro[benzo[f]pyrrolo[1,2-a][1,4]diazepine-6,1′-cyclopropan]-4(5H)-one], the EC50 was in the range of 100 to 1000 nM.

As to `CCc1ncccc1-c1ccc2c(c1)-n1cc(-c3ccccc3)cc1C(=O)N(C)C21CC1` [Example 99, 5-Methyl-2-phenyl-9-(2-ethyl-pyridin-3-yl)-spiro[benzo[f]pyrrolo[1,2-a][1,4]diazepine-6,1′-cyclopropan]-4(5H)-one], the half-maximal effective concentration (EC50) fell in the range of 100 to 1000 nM.

With `Cc1ccncc1-c1ccc2c(c1)-n1cc(-c3ccccc3)cc1C(=O)N(C)C21CC1` [Example 101, 5-Methyl-2-phenyl-9-(4-methyl-pyridin-3-yl)-spiro[benzo[f]pyrrolo[1,2-a][1,4]diazepine-6,1′-cyclopropan]-4(5H)-one], the EC50 is 100 to 1000 nM.

Turning to `CN1C(=O)c2cc(-c3ccccc3)cn2-c2cc(-c3ccncc3)ccc2C12CC2` [Example 102, 5-Methyl-2-phenyl-9-(pyridin-4-yl)-spiro[benzo[f]pyrrolo[1,2-a][1,4]diazepine-6,1′-cyclopropan]-4(5H)-one], the EC50 is less than 100 nM.

Turning to `Cc1ccc(-c2ccc3c(c2)-n2cc(-c4ccccc4)cc2C(=O)N(C)C32CC2)cn1` [Example 103, 5-Methyl-2-phenyl-9-(6-methyl-pyridin-3-yl)-spiro[benzo[f]pyrrolo[1,2-a][1,4]diazepine-6,1′-cyclopropan]-4(5H)-one], the EC50 is less than 100 nM.

In the case of `CN1C(=O)c2cc(-c3ccccc3)cn2-c2cc(-c3cncnc3)ccc2C12CC2` [Example 104, 5-Methyl-2-phenyl-9-(pyrimidin-5-yl)-spiro[benzo[f]pyrrolo[1,2-a][1,4]diazepine-6,1′-cyclopropan]-4(5H)-one], the EC50 was in the range of 100 to 1000 nM.

Compound `Cc1cc(-c2ccc3c(c2)-n2cc(-c4ccccc4)cc2C(=O)N(C)C32CC2)ccn1` [Example 105, 5-Methyl-2-phenyl-9-(2-methyl-pyridin-4-yl)-spiro[benzo[f]pyrrolo[1,2-a][1,4]diazepine-6,1′-cyclopropan]-4(5H)-one] registered an EC50 of 100 to 1000 nM.

For `Cc1ccc(-c2ccc3c(c2)-n2cc(-c4ccccc4)cc2C(=O)N(C)C32CC2)c(C)n1` [Example 107, 5-Methyl-2-phenyl-9-(2,6-dimethyl-pyridin-3-yl)-spiro[benzo[f]pyrrolo[1,2-a][1,4]diazepine-6,1′-cyclopropan]-4(5H)-one], the EC50 is less than 100 nM.

For `CN1C(=O)c2cc(-c3ccccc3)cn2-c2cc(-c3cccnn3)ccc2C12CC2` [Example 109, 5-Methyl-2-phenyl-9-pyridazin-3-yl-spiro[benzo[f]pyrrolo[1,2-a][1,4]diazepine-6,1′-cyclopropan]-4(5H)-one], the EC50 was 100 to 1000 nM.

Regarding `CN1C(=O)c2cc(-c3ccccc3)cn2-c2cc(-c3ccccn3)ccc2C12CC2` [Example 111, 5-Methyl-2-phenyl-9-(pyridin-2-yl)-spiro[benzo[f]pyrrolo[1,2-a][1,4]diazepine-6,1′-cyclopropan]-4(5H)-one], the EC50 is less than 100 nM.

Consider `CCc1ccc(-c2ccc3c(c2)-n2cc(-c4ccccc4)cc2C(=O)N(C)C32CC2)cn1` [Example 112, 5-methyl-2-phenyl-9-(6-ethylpyridin-3-yl)-spiro[benzo[f]pyrrolo[1,2-a][1,4]diazepine-6,1′-cyclopropan]-4(5H)-one], for which the half-maximal effective concentration (EC50) was less than 100 nM.
